From paper PMC3539793 (Neuroscience letters, 2012)
Non-standard residues stand in square brackets, D forms with d. Residues, ends and D or L forms follow the SMILES beside them. *: point of attachment. X1 = OC[C@H]1O[C@@H](O[C@H]2[C@H](O)[C@@H](O)[C@H](*)O[C@@H]2CO)[C@H](O)[C@@H](O)[C@H]1O

Key:
[1] = rhesus monkeys; i.m. injection; cited from earlier work
allodynia = settings: rhesus monkeys; i.m.; cited from earlier work
δ-opioid receptor = settings: cited from earlier work
[2] = test system: apomorphine-induced overshoot in movement; settings: reserpine-treated akinesia rats; cited from earlier work
[3] = type: in vivo, rat
μ-opioid receptor = settings: cited from earlier work
thermal nociception = settings: rhesus monkeys; i.m.; cited from earlier work

CC(C)C[C@H](NC(=O)[C@H](Cc1ccccc1)NC(=O)CNC(=O)[C@H](NC(=O)[C@@H](N)Cc1ccc(O)cc1)[C@H](C)O)C(=O)N[C@@H](CO[C@@H]1O[C@H](CO)[C@@H](O[C@@H]2O[C@H](CO)[C@H](O)[C@H](O)[C@H]2O)[C@H](O)[C@H]1O)C(N)=O [MMP-2200, Tyr-D-Thr-Gly-Phe-Leu-Ser(β-O-Glc)-CONH2] (H-Y[dT]GFLS(X1)-NH2; N-terminus assumed)
CNS distribution [1]: very limited | anti-allodynic effects (allodynia): comparable to morphine | affinity for δ-opioid receptor (δ-opioid receptor): nanomolar | apomorphine-induced overshoot in movement [2]: reversed | MMP-2200 concentration in DLS reached within 10 minutes ([3]; rat, systemic administration (i.p.), highlights): nM range | effect of MMP-2200 injection on endogenous leu-ENK level in DLS ([3]; rats, MMP-2200 10 mg/kg i.p., 80 min, repeated measures ANOVA p = 0.8, n = 5): unchanged | affinity for μ-opioid receptor (μ-opioid receptor): nanomolar | effect in tail flick model of thermal nociception (thermal nociception): not very effective
